In ChEMBL document CHEMBL1137191, “Evaluation of pyrrolidin-2-imines and 1,3-thiazolidin-2-imines as inhibitors of nitric oxide synthase” (Bioorg Med Chem Lett, 2004) one finds IC50 and Ratio data, which are given here for 27 compounds.

In test [1] the target is Nitric oxide synthase 1 (Homo sapiens, UniProt P29475). Description: Inhibitory activity against Neuronal nitric oxide synthase.
Test [2] deals with T1, Nitric oxide synthase 3 (Homo sapiens, UniProt P29474).
T1 sequence (P29474 whole entry): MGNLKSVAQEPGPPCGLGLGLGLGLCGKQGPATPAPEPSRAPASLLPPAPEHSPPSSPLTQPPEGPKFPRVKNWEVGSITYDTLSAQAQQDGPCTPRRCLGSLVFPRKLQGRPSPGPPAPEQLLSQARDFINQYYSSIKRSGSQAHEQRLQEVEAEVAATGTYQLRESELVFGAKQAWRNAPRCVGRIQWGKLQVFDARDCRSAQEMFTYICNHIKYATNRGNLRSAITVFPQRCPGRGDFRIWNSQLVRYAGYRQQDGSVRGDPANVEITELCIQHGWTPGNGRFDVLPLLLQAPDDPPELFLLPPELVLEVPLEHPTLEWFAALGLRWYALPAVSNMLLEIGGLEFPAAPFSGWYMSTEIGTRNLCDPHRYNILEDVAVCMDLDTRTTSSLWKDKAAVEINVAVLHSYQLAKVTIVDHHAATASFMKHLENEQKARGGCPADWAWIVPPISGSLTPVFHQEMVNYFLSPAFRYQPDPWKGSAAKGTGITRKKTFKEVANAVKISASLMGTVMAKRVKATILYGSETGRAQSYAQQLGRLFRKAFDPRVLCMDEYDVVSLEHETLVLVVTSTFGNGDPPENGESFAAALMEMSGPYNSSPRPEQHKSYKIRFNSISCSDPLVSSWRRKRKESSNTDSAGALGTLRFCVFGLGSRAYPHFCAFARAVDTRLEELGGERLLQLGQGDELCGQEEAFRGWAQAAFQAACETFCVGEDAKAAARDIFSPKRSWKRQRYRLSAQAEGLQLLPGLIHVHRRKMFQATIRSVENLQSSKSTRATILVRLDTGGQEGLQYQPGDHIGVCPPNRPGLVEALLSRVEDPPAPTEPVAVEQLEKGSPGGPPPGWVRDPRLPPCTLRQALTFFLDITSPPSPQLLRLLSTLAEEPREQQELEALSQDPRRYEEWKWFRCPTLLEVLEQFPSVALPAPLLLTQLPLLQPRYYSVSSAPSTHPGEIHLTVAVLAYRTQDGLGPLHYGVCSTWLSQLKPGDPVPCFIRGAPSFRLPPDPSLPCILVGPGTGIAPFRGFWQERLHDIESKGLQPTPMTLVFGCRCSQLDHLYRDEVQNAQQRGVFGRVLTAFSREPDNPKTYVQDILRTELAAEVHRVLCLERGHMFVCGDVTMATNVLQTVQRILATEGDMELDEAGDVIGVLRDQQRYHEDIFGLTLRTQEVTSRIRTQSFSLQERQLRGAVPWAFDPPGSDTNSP
Put plainly: Inhibitory activity against Endothelial nitric oxide synthase.

Test [3] addresses Nitric oxide synthase, inducible (Homo sapiens, UniProt P35228). Description: Inhibitory activity against Inducible nitric oxide synthase.
For test [4], the target named is T2, Nitric oxide synthase 3 (Homo sapiens) (UniProt P29474).
T2 sequence (whole entry): T1 sequence (P29474 whole entry)
Put plainly: Ratio between Endothelial nitric oxide synthase and Inducible nitric oxide synthase.

As usually defined, the IC50 is the point on the concentration scale where inhibition reaches its midpoint. Low values mean inhibition by little substance, high ones a need for much substance.

Chain of Nitric oxide synthase 1 (P29475 whole entry): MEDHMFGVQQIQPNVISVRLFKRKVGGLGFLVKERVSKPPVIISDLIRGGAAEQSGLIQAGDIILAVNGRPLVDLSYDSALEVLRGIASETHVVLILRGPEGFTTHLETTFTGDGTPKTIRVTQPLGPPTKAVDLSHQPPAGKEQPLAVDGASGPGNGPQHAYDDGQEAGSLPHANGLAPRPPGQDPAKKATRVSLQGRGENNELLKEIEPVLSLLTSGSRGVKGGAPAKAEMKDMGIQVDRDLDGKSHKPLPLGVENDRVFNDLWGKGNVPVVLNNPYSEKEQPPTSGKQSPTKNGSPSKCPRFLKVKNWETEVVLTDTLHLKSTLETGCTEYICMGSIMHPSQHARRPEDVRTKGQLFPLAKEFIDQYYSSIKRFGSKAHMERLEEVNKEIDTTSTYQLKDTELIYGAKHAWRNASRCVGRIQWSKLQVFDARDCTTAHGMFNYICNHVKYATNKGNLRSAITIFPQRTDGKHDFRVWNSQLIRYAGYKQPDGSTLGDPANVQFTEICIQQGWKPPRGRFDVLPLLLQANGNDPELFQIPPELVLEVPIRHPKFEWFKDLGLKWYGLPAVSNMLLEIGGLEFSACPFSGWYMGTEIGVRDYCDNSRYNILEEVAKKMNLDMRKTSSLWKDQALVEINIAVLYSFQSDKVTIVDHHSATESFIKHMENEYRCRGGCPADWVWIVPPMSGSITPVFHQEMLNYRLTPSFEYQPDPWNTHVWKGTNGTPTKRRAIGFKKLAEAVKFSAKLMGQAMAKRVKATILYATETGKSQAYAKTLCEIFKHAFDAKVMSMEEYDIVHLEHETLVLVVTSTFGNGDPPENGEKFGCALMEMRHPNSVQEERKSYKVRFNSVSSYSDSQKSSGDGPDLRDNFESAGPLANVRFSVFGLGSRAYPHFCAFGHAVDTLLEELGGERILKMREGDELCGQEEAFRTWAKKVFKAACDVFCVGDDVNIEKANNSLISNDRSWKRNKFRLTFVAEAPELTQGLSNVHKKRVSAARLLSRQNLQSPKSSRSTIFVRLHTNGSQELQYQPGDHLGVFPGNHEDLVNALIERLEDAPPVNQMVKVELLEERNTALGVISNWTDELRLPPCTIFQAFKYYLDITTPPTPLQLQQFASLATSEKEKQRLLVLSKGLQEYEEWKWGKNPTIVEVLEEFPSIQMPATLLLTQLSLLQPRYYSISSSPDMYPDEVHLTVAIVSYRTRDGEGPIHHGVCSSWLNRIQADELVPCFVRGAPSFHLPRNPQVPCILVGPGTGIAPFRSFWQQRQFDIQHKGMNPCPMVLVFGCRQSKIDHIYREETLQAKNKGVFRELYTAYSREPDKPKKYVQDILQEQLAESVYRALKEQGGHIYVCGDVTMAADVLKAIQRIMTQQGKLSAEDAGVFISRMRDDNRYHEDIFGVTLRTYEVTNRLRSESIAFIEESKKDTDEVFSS
Chain of Nitric oxide synthase, inducible (P35228 whole entry): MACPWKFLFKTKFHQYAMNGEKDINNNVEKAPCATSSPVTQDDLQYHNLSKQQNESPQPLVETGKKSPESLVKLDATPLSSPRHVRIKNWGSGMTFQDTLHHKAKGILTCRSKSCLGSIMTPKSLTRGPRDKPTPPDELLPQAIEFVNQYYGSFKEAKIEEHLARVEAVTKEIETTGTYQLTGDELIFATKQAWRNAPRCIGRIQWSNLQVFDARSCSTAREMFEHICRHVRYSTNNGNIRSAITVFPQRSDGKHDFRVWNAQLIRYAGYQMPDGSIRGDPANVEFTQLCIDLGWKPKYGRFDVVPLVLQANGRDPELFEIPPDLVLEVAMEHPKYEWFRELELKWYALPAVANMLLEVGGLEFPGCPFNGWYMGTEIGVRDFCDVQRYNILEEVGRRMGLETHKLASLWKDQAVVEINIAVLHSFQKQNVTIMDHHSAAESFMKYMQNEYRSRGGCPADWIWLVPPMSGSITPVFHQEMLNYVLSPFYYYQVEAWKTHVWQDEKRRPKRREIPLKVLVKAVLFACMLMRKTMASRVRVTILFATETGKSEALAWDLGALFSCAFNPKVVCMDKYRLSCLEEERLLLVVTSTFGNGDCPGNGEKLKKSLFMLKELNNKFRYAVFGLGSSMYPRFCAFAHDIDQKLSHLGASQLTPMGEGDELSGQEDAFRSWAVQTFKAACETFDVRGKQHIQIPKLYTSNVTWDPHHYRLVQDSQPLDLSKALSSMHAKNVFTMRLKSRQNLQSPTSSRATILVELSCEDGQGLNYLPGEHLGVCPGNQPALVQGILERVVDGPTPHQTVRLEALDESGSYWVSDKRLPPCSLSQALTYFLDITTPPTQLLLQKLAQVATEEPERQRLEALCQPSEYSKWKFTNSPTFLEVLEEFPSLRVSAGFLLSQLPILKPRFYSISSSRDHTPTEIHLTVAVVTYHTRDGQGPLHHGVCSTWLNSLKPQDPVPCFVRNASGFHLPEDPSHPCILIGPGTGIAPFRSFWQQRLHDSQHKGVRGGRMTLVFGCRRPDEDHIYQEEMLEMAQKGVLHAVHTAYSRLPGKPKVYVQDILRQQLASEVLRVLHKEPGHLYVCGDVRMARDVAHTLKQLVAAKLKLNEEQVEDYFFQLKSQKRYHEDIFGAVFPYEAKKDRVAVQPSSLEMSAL

Turning to `CC1CC(N)=NC1C` (stereo unspecified), the half-maximal inhibitory concentration (IC50) in test [1] was 0.13 µM; in test [2], 0.6 µM; in test [3], 300 nM.

On to `CC1CCC(N)=N1` (stereo unspecified), for which the Ratio in test [4] was 1.4. Moreover, the IC50 amounted to 3.1 µM in test [1], 1.9 µM in test [2] and 1300 nM in test [3].

As to `N=C1CCC2CCCN12` (stereo unspecified), the results for the concentration for half-maximal inhibition (IC50) in test [1], in test [2] and in test [3] were 9.6 µM, 33 µM and more than 50000 nM, respectively.

Regarding `CC(=N)NCCCC[C@H](N)C(=O)O` [L-NIL], the Ratio in test [4] worked out at 3.7. In test [1], the IC50 turned out to be 17.5 µM.

On to `NC1=NC(c2ccccc2)CS1` (stereo unspecified), for which the concentration for half-maximal inhibition (IC50) in test [1] is more than 50 µM; in test [2] it was more than 50 µM; in test [3] it was more than 50000 nM.

Regarding `N=C1SCC2CCCN12` (stereo unspecified), the IC50 in test [1] is 14 µM; in test [2] it was more than 50 µM; in test [3] it was more than 50000 nM.

`CCC1CC(C)C(N)=N1` (stereo unspecified): the Ratio in test [4] was determined as 0.24. The results for the IC50 in test [1], in test [2] and in test [3] were 2.4 µM, 5.5 µM and 23000 nM, respectively.

`NC1=NC2CCCC2C1` (stereo unspecified): the half-inhibitory concentration (IC50) in test [1] was 9.9 µM; in test [2], more than 50 µM; in test [3], more than 50000 nM.

Take `N=C1SCC2CCCCN12` (stereo unspecified): the results for the half-maximal inhibitory concentration (IC50) in test [1], in test [2] and in test [3] were more than 50 µM, more than 50 µM and more than 50000 nM, respectively.

Regarding `CCCC1N=C(N)CC1C` (stereo unspecified), in test [4], the Ratio worked out at 24. Also, the values for the half-maximal inhibitory concentration (IC50) in test [1], in test [2] and in test [3] were 4.8 µM, 49 µM and 2000 nM, respectively.

`NC1=NCC(c2ccccc2)C1` (stereo unspecified): the results for the IC50 in test [1], in test [2] and in test [3] were more than 50 µM, more than 50 µM and more than 50000 nM, respectively.

As to `NC1=NCCS1`, the Ratio in test [4] worked out at 1.2. The concentration for half-maximal inhibition (IC50) in test [1] turned out to be 1.8 µM; in test [2], 1.1 µM; in test [3] it was 900 nM.

Take `CC1CN=C(N)S1` (stereo unspecified): the half-inhibitory concentration (IC50) in test [1] was more than 50 µM; in test [2], more than 50 µM; in test [3], more than 50000 nM.

With `CCCC1CC(N)=NC1CC` (stereo unspecified), the Ratio in test [4] worked out at 22. Besides, the IC50 in test [1] turned out to be 17.3 µM; in test [2] it was 227 µM; in test [3], 10200 nM.

For `CC1CN=C(N)C1C` (stereo unspecified), in test [4], the Ratio was found to be 7.2. Further, the IC50 in test [1] was 0.61 µM; in test [2], 8.7 µM; in test [3], 1200 nM.

Take `CCC1CN=C(N)C1C` (stereo unspecified): the Ratio in test [4] worked out at 65. The IC50 in test [1] worked out at 0.61 µM; in test [2], 60.6 µM; in test [3], 930 nM.

In the case of `CC(C)C1CN=C(N)C1` (stereo unspecified), the Ratio in test [4] is 25. Also, the IC50 turned out to be 10.6 µM in test [1], 87.8 µM in test [2] and 3500 nM in test [3].

Take `CCCCC1CSC(N)=N1` (stereo unspecified): the half-inhibitory concentration (IC50) was 13.2 µM in test [1], more than 50 µM in test [2] and 5200 nM in test [3].

Consider `CC1CCN=C1N` (stereo unspecified), for which the Ratio in test [4] was found to be 1.2. Also, the IC50 in test [1] was determined as 0.9 µM; in test [2] it was 1.8 µM; in test [3] it was 1500 nM.

Take `CCC1N=C(N)CC1C` (stereo unspecified): the Ratio in test [4] was found to be 26. Besides, the IC50 in test [1] was 0.08 µM; in test [2], 0.52 µM; in test [3] it was 20 nM.

For the compound `CC1CN=C(N)C1` (stereo unspecified), in test [4], the Ratio is 13. The figures for the half-inhibitory concentration (IC50) in test [1], in test [2] and in test [3] were 0.8 µM, 2.6 µM and 200 nM, respectively.

Turning to `CCCC1CC(N)=NC1C` (stereo unspecified), the Ratio in test [4] amounted to 8. Besides, the IC50 in test [1] was found to be 27 µM; in test [2] it was 104 µM; in test [3], 13100 nM.

Consider `NC1=NCCC1`, for which the Ratio in test [4] came to 1.1. The half-maximal inhibitory concentration (IC50) in test [1] stood at 9.6 µM; in test [2], 4.6 µM; in test [3] it was 4100 nM.

Regarding `CCCC1CN=C(N)C1` (stereo unspecified), the Ratio in test [4] is 1.4. In addition, the figures for the half-inhibitory concentration (IC50) in test [1], in test [2] and in test [3] were 53 µM, 53 µM and 38700 nM, respectively.

Take `CCC1CN=C(N)C1` (stereo unspecified): the Ratio in test [4] was found to be 27. Moreover, the figures for the IC50 in test [1], in test [2] and in test [3] were 2.6 µM, 14.5 µM and 500 nM, respectively.

`CCC1CC(N)=NC1C` (stereo unspecified): the Ratio in test [4] was 38. Further, the IC50 in test [1] came out at 0.14 µM; in test [2] it was 6.3 µM; in test [3] it was 160 nM.

As for `N=C1CCC2CCCCN12` (stereo unspecified), the values for the concentration for half-maximal inhibition (IC50) in test [1], in test [2] and in test [3] were more than 50 µM, more than 50 µM and more than 50000 nM, respectively.
